Consider 24 molecules from patent publication US20160130278A1 (TAISHO PHARMACEUTICAL CO., LTD, priority 2013, published 2016).

Structures are written as SMILES. pIC50: −log10 of the molar value.

A word on the pIC50: it is the IC50 on a negative log10 scale, so that one unit is a factor of ten. A lower pIC50 goes with a high IC50.

The assay addresses T1, human type 1 glycine transporter (GlyT1) (Homo sapiens, UniProt P48067).
T1 construct: T98G cells (glioma cells) expressing human type 1 glycine transporter (GlyT1) were used
T1 sequence (P48067 1-706): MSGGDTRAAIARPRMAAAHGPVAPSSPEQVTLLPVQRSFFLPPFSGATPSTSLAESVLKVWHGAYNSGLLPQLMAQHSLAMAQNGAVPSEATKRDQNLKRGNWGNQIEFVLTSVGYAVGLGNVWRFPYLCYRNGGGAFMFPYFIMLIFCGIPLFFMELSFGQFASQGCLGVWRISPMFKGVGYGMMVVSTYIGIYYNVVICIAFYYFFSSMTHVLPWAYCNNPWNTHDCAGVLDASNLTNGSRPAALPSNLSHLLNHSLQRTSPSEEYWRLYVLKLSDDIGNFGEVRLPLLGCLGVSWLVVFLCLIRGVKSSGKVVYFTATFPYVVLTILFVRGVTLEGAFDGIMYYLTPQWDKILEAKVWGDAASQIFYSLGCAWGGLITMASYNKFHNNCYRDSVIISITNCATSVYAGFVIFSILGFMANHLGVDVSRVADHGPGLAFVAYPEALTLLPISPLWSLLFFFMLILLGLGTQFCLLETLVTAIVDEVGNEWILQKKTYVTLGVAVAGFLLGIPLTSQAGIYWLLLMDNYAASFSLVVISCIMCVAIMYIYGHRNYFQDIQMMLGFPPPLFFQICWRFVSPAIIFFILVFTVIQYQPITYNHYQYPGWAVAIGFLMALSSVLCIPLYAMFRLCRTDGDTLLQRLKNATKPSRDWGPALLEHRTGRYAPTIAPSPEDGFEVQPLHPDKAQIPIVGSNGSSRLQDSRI
The assay can be described thus: Glycine uptake inhibition experiment ([3H]glycine uptake). It is filed as cell-based. Conditions: GlyT1. The essentials:
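T98G glioma cells expressing human GlyT1 were pretreated 10 min with compound in HEPES buffer pH 7.4 (0.2% BSA), then incubated with compound plus 250 nM final [3H]glycine for 15 min at room temperature. Intracellular radioactivity was counted after NaOH lysis; 10 μM ALX5407 defined non-specific uptake. IC50 came from 10^−9–10^−5 M curves.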

Regarding `O=C(NC(c1cccc(Cl)n1)C1(O)CCC(F)(F)CC1)c1cc(C(F)(F)F)ncc1Cl` (single isomer, unassigned) [Compound 353, 5-chloro-N-[(6-chloropyridin-2-yl)(4,4-difluoro-1-hydroxycyclohexyl)methyl]-2-(trifluoromethyl)pyridine-4-carboxamide], the pIC50 is 6.82.

`O=C(NC(c1cccc(Cl)n1)C1(O)CCC(F)(F)CC1)c1cc(C(F)(F)F)cnc1Cl` (single isomer, unassigned) [Compound 354, 2-chloro-N-[(6-chloropyridin-2-yl)(4,4-difluoro-1-hydroxycyclohexyl)methyl]-5-(trifluoromethyl)pyridine-3-carboxamide] had a pIC50 of 6.66.

In turn, `O=C(NC(c1cccc(Cl)n1)C1(O)CCC(F)(F)CC1)c1nccc2ccccc12` (single isomer, unassigned) [Compound 355, N-[(6-chloropyridin-2-yl)(4,4-difluoro-1-hydroxycyclohexyl)methyl]isoquinoline-1-carboxamide] showed a pIC50 of 6.89.

Take `O=C(NC(c1cccc(Cl)n1)C1(O)CCC(F)(F)CC1)c1ccc(C(F)(F)F)nc1Cl` (single isomer, unassigned) [Compound 356, 2-chloro-N-[(6-chloropyridin-2-yl)(4,4-difluoro-1-hydroxycyclohexyl)methyl]-6-(trifluoromethyl)pyridine-3-carboxamide]: the pIC50 is 6.60.

Molecule `O=C(NC(c1cccnc1Cl)C1(O)CCC(F)(F)CC1)c1cccc(C(F)(F)F)c1Cl` (single isomer, unassigned) [Compound 357, 2-chloro-N-[(2-chloropyridin-3-yl)(4,4-difluoro-1-hydroxycyclohexyl)methyl]-3-(trifluoromethyl)benzamide] had a pIC50 of 6.48. This pIC50 and that of the molecule before are within 0.2 log units of each other.

As to `O=C(NC(c1cccc(F)n1)C1(O)CCC(F)(F)CC1)c1nccc(C(F)(F)F)c1Cl` (single isomer, unassigned) [Compound 358, 3-chloro-N-[(4,4-difluoro-1-hydroxycyclohexyl)(6-fluoropyridin-2-yl)methyl]-4-(trifluoromethyl)pyridine-2-carboxamide], the pIC50 was 6.82.

In turn, `O=C(NC(c1cccc(F)n1)C1(O)CCC(F)(F)CC1)c1ccnc(C(F)(F)F)c1Cl` (single isomer, unassigned) [Compound 359, 3-chloro-N-[(4,4-difluoro-1-hydroxycyclohexyl)(6-fluoropyridin-2-yl)methyl]-2-(trifluoromethyl)pyridine-4-carboxamide] showed a negative logarithm of the IC50 (pIC50) of 6.60.

`O=C(NC(c1cc(Cl)ccn1)C1(O)CCC(F)(F)CC1)c1cc(C(F)(F)F)cnc1Cl` (single isomer, unassigned) [Compound 360, 2-chloro-N-[(4-chloropyridin-2-yl)(4,4-difluoro-1-hydroxycyclohexyl)methyl]-5-(trifluoromethyl)pyridine-3-carboxamide]: the negative logarithm of the IC50 (pIC50) is 6.28.

Take `O=C(NC(c1ncccc1Cl)[C@]1(O)CC[C@@H](F)CC1)c1nccc(C(F)(F)F)c1Cl` (single isomer, unassigned) [Compound 361, 3-chloro-N-[(3-chloropyridin-2-yl)(cis-4-fluoro-1-hydroxycyclohexyl)methyl]-4-(trifluoromethyl)pyridine-2-carboxamide]: the negative-log IC50 (pIC50) was 6.52.

In turn, `O=C(NC(c1cccc(Cl)n1)[C@]1(O)CC[C@@H](F)CC1)c1cc(C(F)(F)F)ccc1Cl` (single isomer, unassigned) [Compound 362] gave a pIC50 of 6.72. Against the preceding molecule, the pIC50 is 0.20 log units higher.

`O=C(NC(c1cccc(Cl)n1)[C@]1(O)CC[C@@H](F)CC1)c1ccc(C(F)(F)F)cc1Cl` (single isomer, unassigned) [Compound 363, 2-chloro-N-[(6-chloropyridin-2-yl)(cis-4-fluoro-1-hydroxycyclohexyl)methyl]-4-(trifluoromethyl)benzamide] showed a negative logarithm of the IC50 (pIC50) of 6.62.

For the molecule `CS(=O)(=O)c1ccc(Cl)cc1C(=O)NC(c1cccc(F)c1Cl)[C@]1(O)CC[C@@H](F)CC1` (single isomer, unassigned) [Compound 364, 5-chloro-N-[(2-chloro-3-fluorophenyl)(cis-4-fluoro-1-hydroxycyclohexyl)methyl]-2-(methylsulfonyl)benzamide], the negative-log IC50 (pIC50) was 6.28. Compared with the last molecule, the pIC50 is 0.34 log units lower.

`O=C(NC(c1cccc(F)c1Cl)[C@]1(O)CC[C@@H](F)CC1)c1ccccc1C1CC1` (single isomer, unassigned) [Compound 365, N-[(2-chloro-3-fluorophenyl)(cis-4-fluoro-1-hydroxycyclohexyl)methyl]-2-cyclopropylbenzamide] gave a pIC50 of 5.55.

In the case of `O=C(NC(c1ccccc1Cl)[C@]1(O)CC[C@@H](F)CC1)c1cc(C(F)(F)F)ncc1Cl` (single isomer, unassigned) [Compound 366, 5-chloro-N-[(2-chlorophenyl)(cis-4-fluoro-1-hydroxycyclohexyl)methyl]-2-(trifluoromethyl)pyridine-4-carboxamide], the pIC50 is 6.49.

`O=C(NC(c1ccccc1Cl)[C@]1(O)CC[C@@H](F)CC1)c1cc(C(F)(F)F)cnc1Cl` (single isomer, unassigned) [Compound 367, 2-chloro-N-[(2-chlorophenyl)(cis-4-fluoro-1-hydroxycyclohexyl)methyl]-5-(trifluoromethyl)pyridine-3-carboxamide] had a pIC50 of 6.42.

As for `O=C(NC(c1ccccc1Cl)[C@]1(O)CC[C@@H](F)CC1)c1ccc(C(F)(F)F)nc1Cl` (single isomer, unassigned) [Compound 368, 2-chloro-N-[(2-chlorophenyl)(cis-4-fluoro-1-hydroxycyclohexyl)methyl]-6-(trifluoromethyl)pyridine-3-carboxamide], the negative logarithm of the IC50 (pIC50) was 6.12.

As for `O=C(NC(c1cccc(F)c1Cl)[C@]1(O)CC[C@@H](F)CC1)c1cnc(Cl)cc1-n1nccn1` (single isomer, unassigned) [Compound 369, 6-chloro-N-[(2-chloro-3-fluorophenyl)(cis-4-fluoro-1-hydroxycyclohexyl)methyl]-4-(2H-1,2,3-triazol-2-yl)pyridine-3-carboxamide], the negative-log IC50 (pIC50) is 5.92.

Consider `O=C(NC(c1cccc(F)c1Cl)[C@]1(O)CC[C@@H](F)CC1)c1ccc(Cl)nc1-n1nccn1` (single isomer, unassigned) [Compound 370, 6-chloro-N-[(2-chloro-3-fluorophenyl)(cis-4-fluoro-1-hydroxycyclohexyl)methyl]-2-(2H-1,2,3-triazol-2-yl)pyridine-3-carboxamide], for which the negative-log IC50 (pIC50) is 5.52.

Molecule `O=C(NC(c1cccc(F)c1Cl)[C@]1(O)CC[C@@H](F)CC1)c1ncc(Cl)cc1-n1nccn1` (single isomer, unassigned) [Compound 371, 5-chloro-N-[(2-chloro-3-fluorophenyl)(cis-4-fluoro-1-hydroxycyclohexyl)methyl]-3-(2H-1,2,3-triazol-2-yl)pyridine-2-carboxamide] gave a pIC50 of 5.80.

Molecule `CS(=O)(=O)c1ccc(C(F)(F)F)cc1C(=O)NC(c1cccc(F)c1Cl)[C@]1(O)CC[C@@H](F)CC1` (single isomer, unassigned) [Compound 372, N-[(2-chloro-3-fluorophenyl)(cis-4-fluoro-1-hydroxycyclohexyl)methyl]-2-(methylsulfonyl)-5-(trifluoromethyl)benzamide] showed a pIC50 of 7.39.

`CS(=O)(=O)c1cc(C(F)(F)F)ccc1C(=O)NC(c1cccc(F)c1Cl)[C@]1(O)CC[C@@H](F)CC1` (single isomer, unassigned) [Compound 373, N-[(2-chloro-3-fluorophenyl)(cis-4-fluoro-1-hydroxycyclohexyl)methyl]-2-(methylsulfonyl)-4-(trifluoromethyl)benzamide] had a pIC50 of 7.00.

The molecule `O=C(NC(c1cc(F)ccc1Cl)[C@]1(O)CC[C@@H](F)CC1)c1nccc(C(F)(F)F)c1Cl` (single isomer, unassigned) [Compound 374, 3-chloro-N-[(2-chloro-5-fluorophenyl)(cis-4-fluoro-1-hydroxycyclohexyl)methyl]-4-(trifluoromethyl)pyridine-2-carboxamide] showed a pIC50 of 6.77.

Regarding `O=C(NC(c1cc(Cl)ccc1F)[C@]1(O)CC[C@@H](F)CC1)c1nccc(C(F)(F)F)c1Cl` (single isomer, unassigned) [Compound 375, 3-chloro-N-[(5-chloro-2-fluroophenyl)(cis-4-fluoro-1-hydroxycyclohexyl)methyl]-4-(trifluoromethyl)pyridine-2-carboxamide], the negative logarithm of the IC50 (pIC50) is 6.60. This pIC50 and that of the molecule before are within 0.2 log units of each other.

Regarding `O=C(NC(c1cc(Cl)ccc1F)[C@]1(O)CC[C@@H](F)CC1)c1ccnc(C(F)(F)F)c1Cl` (single isomer, unassigned) [Compound 376, 3-chloro-N-[(5-chloro-2-fluorophenyl)(cis-4-fluoro-1-hydroxycyclohexyl)methyl]-2-(trifluoromethyl)pyridine-4-carboxamide], the negative-log IC50 (pIC50) was 6.26. This pIC50 is 0.34 log units lower than that of the molecule before.
